Data taken from patent US11597721B2, “Heterocyclic compounds comprising pyridine useful as modulators of IL-12, IL-23 and/or IFNα responses” (BRISTOL-MYERS SQUIBB COMPANY, priority 2018, dated 2023).

These compounds were tested on IFNα-Induced STAT Phosphorylation (assay: IFNα-Induced STAT Phosphorylation in Human Whole Blood). Details: Homo sapiens, 1 h compound incubation, 1000 U/mL recombinant human IFNα A/D for 15 min, pSTAT5 in CD3 positive population, read-out: LE Human WB IFNα-Induced Stat Phosph. (IC50).
Format: cell-based
Source text: IFNα-Induced STAT Phosphorylation in Human Whole Blood
The amount of pSTAT5 expression was quantitated by median fluorescence intensity after gating on the CD3 positive population.

Compound | IC50 [µM]
[2H]C([2H])([2H])NC(=O)c1cnc(NC(=O)CC)cc1Nc1nccc(-c2noc(C)n2)c1OC [Example 43, 4-{[3-methoxy-4-(5-methyl-1,2,4-oxadiazol-3-yl)pyridin-2-yl]amino}-N—(^2H3)methy-6-propanamidopyridine-3-carboxamide] | 0.12
[2H]C([2H])([2H])NC(=O)c1cnc(NC(=O)CC2CC2)cc1Nc1nccc(-c2noc(C)n2)c1OC [Example 44, 6-(2-cyclopropylacetamido)-4-{[3-methoxy-4-(5-methyl-1,2,4-oxadiazol-3-yl)pyridin-2-yl]amino}-N—(^2H3)methylpyridine-3-carboxamide] | 0.09
[2H]C([2H])([2H])NC(=O)c1cnc(NC(=O)C2CC2)cc1Nc1nccc(-c2noc(COC)n2)c1OC [Example 45, 6-cyclopropaneamido-4-({3-methoxy-4-[5-(methoxymethyl)-1,2,4-oxadiazol-3-yl]pyridin-2-yl}amino)-N—(^2H3)methylpyridine-3-carboxamide] | 0.01
[2H]C([2H])([2H])NC(=O)c1cnc(NC(=O)C2CC2)cc1Nc1nccc(-c2noc(COCC)n2)c1OC [Example 46, 6-cyclopropaneamido-4-({4-[5-(ethoxymethyl)-1,2,4-oxadiazol-3-yl]-3-methoxypyridin-2-yl}amino)-N—(^2H3)methylpyridine-3-carboxamide] | 0.03
[2H]C([2H])([2H])NC(=O)c1cnc(NC(=O)C2CC2)cc1Nc1nccc(-c2noc(COC(C)C)n2)c1OC [Example 47, 6-cyclopropaneamido-4-[(3-methoxy-4-{5-[(propan-2-yloxy)methyl]-1,2,4-oxadiazol-3-yl}pyridin-2-yl)amino]-N—(^2H3)methylpyridine-3-carboxamide] | 0.02
[2H]C([2H])([2H])NC(=O)c1cnc(NC(=O)CC)cc1Nc1nccc(-c2noc(COC)n2)c1OC [Example 48, 4-({3-methoxy-4-[5-(methoxymethyl)-1,2,4-oxadiazol-3-yl]pyridin-2-yl}amino)-N—(^2H3)methyl-6-propanamidopyridine-3-carboxamide] | 0.2
[2H]C([2H])([2H])NC(=O)c1nnc(NC(=O)C2CC2)cc1Nc1nccc(-c2noc(COC)n2)c1OC [Example 50, 6-cyclopropaneamido-4-({3-methoxy-4-[5-(methoxymethyl)-1,2,4-oxadiazol-3-yl]pyridin-2-yl}amino)-N—(^2H3)methylpyridazine-3-carboxamide] | 0.04
[2H]C([2H])([2H])NC(=O)c1nnc(NC(=O)C2CC2)cc1Nc1nccc(C#N)c1OC [Example 51, 4-[(4-cyano-3-methoxypyridin-2-yl)amino]-6-cyclopropaneamido-N—(^2H3)methylpyridazine-3-carboxamide] | > 10
[2H]C([2H])([2H])NC(=O)c1nnc(NC(=O)OC)cc1Nc1nccc(-c2noc(CN(C)S(C)(=O)=O)n2)c1OC [Example 52, methyl N-{5-[(3-methoxy-4-{5-[(N-methylmethanesulfonamido)methyl]-1,2,4-oxadiazol-3-yl}pyridin-2-yl)amino]-6-[(^2H3)methylcarbamoyl]pyridazin-3-yl}carbamate] | 0.11
[2H]C([2H])([2H])NC(=O)c1nnc(NC(=O)OC)cc1Nc1nccc(-c2noc(CN3CCOCC3)n2)c1OC [Example 53, methyl N-{5-[(3-methoxy-4-{5-[(morpholin-4-yl)methyl]-1,2,4-oxadiazol-3-yl}pyridin-2-yl)amino]-6-[(^2H3)methylcarbamoyl]pyridazin-3-yl}carbamate] | 0.5
[2H]C([2H])([2H])NC(=O)c1nnc(NC(=O)C2CC2)cc1Nc1nccc(-c2noc(CN(C)S(C)(=O)=O)n2)c1OC [Example 54, 6-cyclopropaneamido-4-[(3-methoxy-4-{5-[(N-methylmethanesulfonamido)methyl]-1,2,4-oxadiazol-3-yl}pyridin-2-yl)amino]-N—(^2H3)methylpyridazine-3-carboxamide] | 0.01
[2H]C([2H])([2H])NC(=O)c1nnc(NC(=O)C2CC2)cc1Nc1nccc(-c2noc(CN3CCOCC3)n2)c1OC [Example 55, 6-cyclopropaneamido-4-[(3-methoxy-4-{5-[(morpholin-4-yl)methyl]-1,2,4-oxadiazol-3-yl}pyridin-2-yl)amino]-N—(^2H3)methylpyridazine-3-carboxamide] | 0.03
[2H]C([2H])([2H])NC(=O)c1nnc(NC(=O)OC)cc1Nc1nccc(-c2noc(C)n2)c1OC [Example 56, methyl N-(5-{[3-methoxy-4-(5-methyl-1,2,4-oxadiazol-3-yl)pyridin-2-yl]amino}-6-[(^2H3)methylcarbamoyl]pyridazin-3-yl)carbamate] | 1.34
[2H]C([2H])([2H])NC(=O)c1nnc(NC(=O)C2CC2)cc1Nc1nccc(-c2noc([C@H](C)O)n2)c1OC [Example 57, 6-cyclopropaneamido-4-[(4-{5-[(1S)-1-hydroxyethyl]-1,2,4-oxadiazol-3-yl}-3-methoxypyridin-2-yl)amino]-N—(^2H3)methylpyridazine-3-carboxamide] | 0.06
[2H]C([2H])([2H])NC(=O)c1nnc(NC(=O)C2CC2)cc1Nc1nccc(-c2noc(CN(C)C)n2)c1OC [Example 58, 6-cyclopropaneamido-4-[(4-{5-[(dimethylamino)methyl]-1,2,4-oxadiazol-3-yl}-3-methoxypyridin-2-yl)amino]-N—(^2H3)methylpyridazine-3-carboxamide] | 0.06
[2H]C([2H])([2H])NC(=O)c1nnc(NC(=O)C2CC2)cc1Nc1nccc(-c2noc(CC#N)n2)c1OC [Example 60, 4-({4-[5-(cyanomethyl)-1,2,4-oxadiazol-3-yl]-3-methoxypyridin-2-yl}amino)-6-cyclopropaneamido-N—(^2H3)methylpyridazine-3-carboxamide] | 0.13
[2H]C([2H])([2H])NC(=O)c1nnc(Nc2cc(C)ccn2)cc1Nc1nccc(-c2noc(CN(C)S(C)(=O)=O)n2)c1OC [Example 61, 4-[(3-methoxy-4-{5-[(N-methylmethanesulfonamido)methyl]-1,2,4-oxadiazol-3-yl}pyridin-2-yl)amino]-N—(^2H3)methyl-6-[(4-methylpyridin-2-yl)amino]pyridazine-3-carboxamide] | 0.3
[2H]C([2H])([2H])NC(=O)c1nnc(Nc2cc(C)ccn2)cc1Nc1nccc(-c2noc(COC)n2)c1OC [Example 62, 4-({3-methoxy-4-[5-(methoxymethyl)-1,2,4-oxadiazol-3-yl]pyridin-2-yl}amino)-N—(^2H3)methyl-6-[(4-methylpyridin-2-yl)amino]pyridazine-3-carboxamide] | 1.13
[2H]C([2H])([2H])NC(=O)c1nnc(NC(=O)OC)cc1Nc1nccc(-c2noc(CN3CCCCS3(=O)=O)n2)c1OC [Example 64, methyl N-{5-[(4-{5-[(1,1-dioxo-1λ^6,2-thiazinan-2-yl)methyl]-1,2,4-oxadiazol-3-yl}-3-methoxypyridin-2-yl)amino]-6-[(^2H3)methylcarbamoyl]pyridazin-3-yl}carbamate] | 0.09
[2H]C([2H])([2H])NC(=O)c1nnc(NC(=O)CC)cc1Nc1nccc(-c2noc(CN3CCOCC3)n2)c1OC [Example 65, 4-[(3-methoxy-4-{5-[(morpholin-4-yl)methyl]-1,2,4-oxadiazol-3-yl}pyridin-2-yl)amino]-N—(^2H3)methyl-6-propanamidopyridazine-3-carboxamide] | 0.12
[2H]C([2H])([2H])NC(=O)c1nnc(NC(=O)CC)cc1Nc1nccc(-c2noc(COC)n2)c1OC [Example 66, 4-({3-methoxy-4-[5-(methoxymethyl)-1,2,4-oxadiazol-3-yl]pyridin-2-yl}amino)-N—(^2H3)methyl-6-propanamidopyridazine-3-carboxamide] | 0.21
[2H]C([2H])([2H])NC(=O)c1nnc(NC(=O)CC2CC2)cc1Nc1nccc(-c2noc(CN(C)S(C)(=O)=O)n2)c1OC [Example 67, 6-(2-cyclopropylacetamido)-4-[(3-methoxy-4-{5-[(N-methylmethanesulfonamido)methyl]-1,2,4-oxadiazol-3-yl}pyridin-2-yl)amino]-N—(^2H3)methylpyridazine-3-carboxamide] | 0.07
[2H]C([2H])([2H])NC(=O)c1nnc(NC(=O)CC(C)C)cc1Nc1nccc(-c2noc(COC)n2)c1OC [Example 68, 4-({3-methoxy-4-[5-(methoxymethyl)-1,2,4-oxadiazol-3-yl]pyridin-2-yl}amino)-N—(^2H3)methyl-6-(3-methylbutanamido)pyridazine-3-carboxamide] | 1.42
[2H]C([2H])([2H])NC(=O)c1nnc(NC(=O)CC(C)C)cc1Nc1nccc(-c2noc(CN3CCOCC3)n2)c1OC [Example 69, 4-[(3-methoxy-4-{5-[(morpholin-4-yl)methyl]-1,2,4-oxadiazol-3-yl}pyridin-2-yl)amino]-N—(^2H3)methyl-6-(3-methylbutanamido)pyridazine-3-carboxamide] | 0.7
[2H]C([2H])([2H])NC(=O)c1nnc(NC(=O)CC(C)C)cc1Nc1nccc(-c2noc(CN(C)S(C)(=O)=O)n2)c1OC [Example 70, 4-[(3-methoxy-4-{5-[(N-methylmethanesulfonamido)methyl]-1,2,4-oxadiazol-3-yl}pyridin-2-yl)amino]-N—(^2H3)methyl-6-(3-methylbutanamido)pyridazine-3-carboxamide] | 0.24
[2H]C([2H])([2H])NC(=O)c1nnc(NC(=O)CC(C)C)cc1Nc1nccc(-c2noc(CN3CCOC3=O)n2)c1OC [Example 71, 4-[(3-methoxy-4-{5-[(2-oxo-1,3-oxazolidin-3-yl)methyl]-1,2,4-oxadiazol-3-yl}pyridin-2-yl)amino]-N—(^2H3)methyl-6-(3-methylbutanamido)pyridazine-3-carboxamide] | 0.42
[2H]C([2H])([2H])NC(=O)c1nnc(NC(=O)CC2COC2)cc1Nc1nccc(-c2noc(COC)n2)c1OC [Example 76, 4-({3-methoxy-4-[5-(methoxymethyl)-1,2,4-oxadiazol-3-yl]pyridin-2-yl}amino)-N—(^2H3)methyl-6-[2-(oxetan-3-yl)acetamido]pyridazine-3-carboxamide] | 0.18
